Test results: a compilation of properties of binary mixtures (doi:10.1524/zpch.2013.0328)

Assay: xn = mol fraction of the nth substance listed
Details: 100 kPa

CC(C)C[P+](C)(CC(C)C)CC(C)C.Cc1ccc(S(=O)(=O)[O-])cc1 + O
viscosity [mPa·s]
Details	301.15 K	313.15 K	323.15 K	333.15 K	343.15 K	353.15 K
x1 = 0.4387	264	131	–	47	–	24
x1 = 0.9022	–	887	423	–	126	–

CC(CC(C)(C)C)CP(=O)([O-])CC(C)CC(C)(C)C.CCCCCCCCCCCCCC[P+](CCCCCC)(CCCCCC)CCCCCC + O
viscosity [mPa·s]
Details	298.15 K	303.15 K	313.15 K	323.15 K	333.15 K	343.15 K	353.15 K
x1 = 0.1299	–	105	65	42	29	22	16
x1 = 0.7942	1004	757	439	–	170	111	78

CCCCCCCCCCCCCC[P+](CCCC)(CCCC)CCCC.CCCCCCCCCCCCc1ccc(S(=O)(=O)[O-])cc1 + O
viscosity [mPa·s]
Details	298.15 K	303.15 K	313.15 K	323.15 K	333.15 K	343.15 K	353.15 K
x1 = 0.3452	506	365	197	–	74	54	40
x1 = 0.892	–	–	1477	750	409	238	–

CCCCCCCCCCCCCC[P+](CCCCCC)(CCCCCC)CCCCCC.N#C[N-]C#N + O
viscosity [mPa·s]
Details	303.15 K	313.15 K	323.15 K	333.15 K	343.15 K	353.15 K
x1 = 0.551	138	86	53	40	28	22
x1 = 0.8444	–	196	123	82	56	41

CCCCCCCC[N+](C)(CCCCCCCC)CCCCCCCC.O=S(=O)([N-]S(=O)(=O)C(F)(F)F)C(F)(F)F + O
x1 = 0.8467
Details	viscosity [mPa·s]
298.15 K	601
303.15 K	426
323.15 K	144
333.15 K	92
353.15 K	46

CC[n+]1ccn(C)c1.O=S(=O)([N-]S(=O)(=O)C(F)(F)F)C(F)(F)F + O
x2 = 0.0086
Details	viscosity [mPa·s]
299.15 K	33
303.15 K	28
313.15 K	22
323.15 K	18
333.15 K	14
343.15 K	12
